Measurements from patent US20260297070A1, “CYCLIC [COMPOUND LEFT OUT] WRN INHIBITORS” (Nimbus Wadjet, Inc., priority 2023, published 2026).

biological target: T1, human Werner helicase (WRN-BV08, Uniprot Q14191, amino acids 517-1235 with L1074F point mutation) (Homo sapiens, UniProt Q14191, L1074F); assay: WRN (BV08) ADP-Glo Assay; type: biochemical; settings: 0.15 nM WRN, 5 μM ATP, 0.1 nM DNA duplex, 15 min preincubation, 60 min at 25° C., pH 7.5, 1% DMSO; read-out: ADP-Glo_hWRN_IC50
T1 construct: Uniprot Q14191, amino acids 517-1235 with L1074F point mutation; TEV-cleavable 8×His (C, cleaved yes); made in house; host or cells: Sf9 insect cells (baculovirus)
T1 sequence (Q14191 with tags, fused parts or gaps L1074F limits assumed): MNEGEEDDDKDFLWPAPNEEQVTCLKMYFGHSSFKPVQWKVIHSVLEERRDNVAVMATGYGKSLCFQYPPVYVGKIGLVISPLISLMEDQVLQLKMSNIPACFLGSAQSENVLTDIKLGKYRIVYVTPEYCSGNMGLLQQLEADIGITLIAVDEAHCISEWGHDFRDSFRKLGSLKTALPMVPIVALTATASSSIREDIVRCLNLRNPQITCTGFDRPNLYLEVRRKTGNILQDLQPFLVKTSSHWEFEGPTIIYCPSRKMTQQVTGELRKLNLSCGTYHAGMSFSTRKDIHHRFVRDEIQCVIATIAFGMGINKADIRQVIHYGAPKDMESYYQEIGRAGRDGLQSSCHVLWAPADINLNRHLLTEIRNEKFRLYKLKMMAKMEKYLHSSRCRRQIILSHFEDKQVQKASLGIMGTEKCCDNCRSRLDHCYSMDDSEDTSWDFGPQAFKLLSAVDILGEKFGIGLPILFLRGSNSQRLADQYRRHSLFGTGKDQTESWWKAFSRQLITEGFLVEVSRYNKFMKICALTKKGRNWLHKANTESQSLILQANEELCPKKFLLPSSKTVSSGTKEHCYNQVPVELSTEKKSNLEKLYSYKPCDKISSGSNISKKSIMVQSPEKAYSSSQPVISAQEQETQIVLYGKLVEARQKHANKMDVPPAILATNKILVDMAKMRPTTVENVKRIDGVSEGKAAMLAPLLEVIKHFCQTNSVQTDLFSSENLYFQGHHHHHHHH
Summary of the method: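 Percent inhibition was normalised to DMSO (max) and 20 μM NSC-617145 (min) controls from ADP-Glo luminescence, and IC50 values came from a four-parameter fit. The reaction ran 60 min at 25 °C with 0.15 nM WRN, 5 μM ATP and 0.1 nM duplex DNA.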

SMILES	IC50 [µM]
O=C(Cc1ccc(S(F)(F)(F)(F)F)cc1)N(CC1CC1)C1C=CS(=O)(=O)C1 (centres unmarked) [I-608, N-(cyclopropylmethyl)-N-(1,1-dioxo-2,3-dihydro-1lambda6-thiophen-3-yl)-2-[4-(pentafluoro-lambda6-sulfanyl)phenyl]acetamide]	10 to 50
Cn1nc(-c2ccccc2)cc1CC(=O)N(Cc1ccncc1)C1C=CS(=O)(=O)C1 (centres unmarked) [I-609, N-(1,1-dioxo-2,3-dihydro-1lambda6-thiophen-3-yl)-2-(1-methyl-3-phenyl-1H-pyrazol-5-yl)-N-[(pyridin-4-yl)methyl]acetamide]	> 50
O=C(C1CC(c2ccc(F)cc2)C1)N(Cc1ccncc1)C1C=CS(=O)(=O)C1 (centres unmarked) [I-614, N-(1,1-dioxo-2,3-dihydro-1lambda6-thiophen-3-yl)-3-(4-fluorophenyl)-N-[(pyridin-4-yl)methyl]cyclobutane-1-carboxamide]	> 50
O=C(C1C2CN(CC(F)(F)F)CC21)N(Cc1ccncc1)C1C=CS(=O)(=O)C1 (centres unmarked) [I-618, N-(1,1-dioxo-2,3-dihydro-1lambda6-thiophen-3-yl)-N-[(pyridin-4-yl)methyl]-3-(2,2,2-trifluoroethyl)-3-azabicyclo[3.1.0]hexane-6-carboxamide]	> 50
O=C(C1C2CCC1C2)N(Cc1ccncc1)C1C=CS(=O)(=O)C1 (centres unmarked) [I-619, N-(1,1-dioxo-2,3-dihydro-1lambda6-thiophen-3-yl)-N-[(pyridin-4-yl)methyl]bicyclo[2.1.1]hexane-5-carboxamide]	> 50
O=C(C1CC(c2ccncc2)=NO1)N(Cc1ccncc1)C1C=CS(=O)(=O)C1 (centres unmarked) [I-621, N-(1,1-dioxo-2,3-dihydro-1lambda6-thiophen-3-yl)-3-(pyridin-4-yl)-N-[(pyridin-4-yl)methyl]-4,5-dihydro-1,2-oxazole-5-carboxamide]	> 50
O=C(C1CCn2cc(C(F)(F)F)nc2C1)N(Cc1ccncc1)C1C=CS(=O)(=O)C1 (centres unmarked) [I-622]	> 50
O=C(Cc1ccc(S(F)(F)(F)(F)F)cc1)N(Cc1cc(C2CC2)no1)C1C=CS(=O)(=O)C1 (centres unmarked) [I-624, N-[(3-cyclopropyl-1,2-oxazol-5-yl)methyl]-N-(1,1-dioxo-2,3-dihydro-1lambda6-thiophen-3-yl)-2-[4-(pentafluoro-lambda6-sulfanyl)phenyl]acetamide]	0.5 to 5
O=C(Cc1ccc(S(F)(F)(F)(F)F)cc1)N(Cc1nc(-c2nn[nH]n2)cs1)C1C=CS(=O)(=O)C1 (centres unmarked) [I-626, N-(1,1-dioxo-2,3-dihydro-1lambda6-thiophen-3-yl)-2-[4-(pentafluoro-lambda6-sulfanyl)phenyl]-N-{[4-(2H-1,2,3,4-tetrazol-5-yl)-1,3-thiazol-2-yl]methyl}acetamide]	< 0.5
O=C(Cc1cnc(C(F)(F)F)cn1)N(Cc1ccncc1)C1C=CS(=O)(=O)C1 (centres unmarked) [I-627, N-(1,1-dioxo-2,3-dihydro-1lambda6-thiophen-3-yl)-N-[(pyridin-4-yl)methyl]-2-[5-(trifluoromethyl)pyrazin-2-yl]acetamide]	> 50
CCc1csc(CN(C(=O)Cc2ccc(S(F)(F)(F)(F)F)cc2)C2C=CS(=O)(=O)C2)n1 (centres unmarked) [I-628, N-(1,1-dioxo-2,3-dihydro-1lambda6-thiophen-3-yl)-N-[(4-ethyl-1,3-thiazol-2-yl)methyl]-2-[4-(pentafluoro-lambda6-sulfanyl)phenyl]acetamide]	< 0.5
O=C(Cc1ccc2c(c1)CCOC2)N(Cc1ccncc1)C1C=CS(=O)(=O)C1 (centres unmarked) [I-630, 2-(3,4-dihydro-1H-2-benzopyran-6-yl)-N-(1,1-dioxo-2,3-dihydro-1lambda6-thiophen-3-yl)-N-[(pyridin-4-yl)methyl]acetamide]	> 50
O=C(Cc1ccc(S(F)(F)(F)(F)F)cc1)N(Cc1ccnc(C2(O)COC2)c1)C1C=CS(=O)(=O)C1 (centres unmarked) [I-633, N-(1,1-dioxo-2,3-dihydro-1lambda6-thiophen-3-yl)-N-{[2-(3-hydroxyoxetan-3-yl)pyridin-4-yl]methyl}-2-[4-(pentafluoro-lambda6-sulfanyl)phenyl]acetamide]	10 to 50
COc1nc(CN(C(=O)Cc2ccc(S(F)(F)(F)(F)F)cc2)C2C=CS(=O)(=O)C2)cc(N(C)C)n1 (centres unmarked) [I-634, N-{[6-(dimethylamino)-2-methoxypyrimidin-4-yl]methyl}-N-(1,1-dioxo-2,3-dihydro-1lambda6-thiophen-3-yl)-2-[4-(pentafluoro-lambda6-sulfanyl)phenyl]acetamide]	5 to 10
COc1cc(CN(C(=O)Cc2ccc(S(F)(F)(F)(F)F)cc2)C2C=CS(=O)(=O)C2)nc(N(C)C)n1 (centres unmarked) [I-635, N-{[2-(dimethylamino)-6-methoxypyrimidin-4-yl]methyl}-N-(1,1-dioxo-2,3-dihydro-1lambda6-thiophen-3-yl)-2-[4-(pentafluoro-lambda6-sulfanyl)phenyl]acetamide]	0.5 to 5

Other lines, results leading:

IC50 [µM]	SMILES
0.5 to 5	O=C(Cc1ccc(S(F)(F)(F)(F)F)cc1)N(Cc1ccnc(OC(F)F)c1)C1C=CS(=O)(=O)C1 (centres unmarked) [I-605, N-{[2-(difluoromethoxy)pyridin-4-yl]methyl}-N-(1,1-dioxo-2,3-dihydro-1lambda6-thiophen-3-yl)-2-[4-(pentafluoro-lambda6-sulfanyl)phenyl]acetamide]
> 50	Cc1nc2cc(CC(=O)N(Cc3ccncc3)C3C=CS(=O)(=O)C3)ccc2o1 (centres unmarked) [I-610, N-(1,1-dioxo-2,3-dihydro-1lambda6-thiophen-3-yl)-2-(2-methyl-1,3-benzoxazol-5-yl)-N-[(pyridin-4-yl)methyl]acetamide]
> 50	O=C([C@H]1C[C@@H](c2ccccc2)C1)N(Cc1ccncc1)C1C=CS(=O)(=O)C1 (some centres unmarked) [I-611, (1s,3s)-N-(1,1-dioxo-2,3-dihydro-1lambda6-thiophen-3-yl)-3-phenyl-N-[(pyridin-4-yl)methyl]cyclobutane-1-carboxamide]
< 0.5	Cc1nc(CN(C(=O)Cc2ccc(S(F)(F)(F)(F)F)cc2)C2C=CS(=O)(=O)C2)sc1C (centres unmarked) [I-612, N-[(4,5-dimethyl-1,3-thiazol-2-yl)methyl]-N-(1,1-dioxo-2,3-dihydro-1lambda6-thiophen-3-yl)-2-[4-(pentafluoro-lambda6-sulfanyl)phenyl]acetamide]
> 50	O=C(CC1COc2ccccc2C1)N(Cc1ccncc1)C1C=CS(=O)(=O)C1 (centres unmarked) [I-613, 2-(3,4-dihydro-2H-1-benzopyran-3-yl)-N-(1,1-dioxo-2,3-dihydro-1lambda6-thiophen-3-yl)-N-[(pyridin-4-yl)methyl]acetamide]
> 50	O=C(Cn1nc(C(F)F)c2c1CCCC2)N(Cc1ccncc1)C1C=CS(=O)(=O)C1 (centres unmarked) [I-616, 2-[3-(difluoromethyl)-4,5,6,7-tetrahydro-1H-indazol-1-yl]-N-(1,1-dioxo-2,3-dihydro-1lambda6-thiophen-3-yl)-N-[(pyridin-4-yl)methyl]acetamide]
> 50	O=C([C@H]1[C@@H]2CC(F)(F)C[C@@H]21)N(Cc1ccncc1)C1C=CS(=O)(=O)C1 (stereo partly drawn) [I-617, (1R,5S,6R)-N-(1,1-dioxo-2,3-dihydro-1lambda6-thiophen-3-yl)-3,3-difluoro-N-[(pyridin-4-yl)methyl]bicyclo[3.1.0]hexane-6-carboxamide]
> 50	CC(C(=O)N(Cc1ccncc1)C1C=CS(=O)(=O)C1)n1cc2ccccc2n1 (centres unmarked) [I-620, N-(1,1-dioxo-2,3-dihydro-1lambda6-thiophen-3-yl)-2-(2H-indazol-2-yl)-N-[(pyridin-4-yl)methyl]propanamide]
0.5 to 5	CC(C)(O)c1ccc(CN(C(=O)Cc2ccc(S(F)(F)(F)(F)F)cc2)C2C=CS(=O)(=O)C2)cc1 (centres unmarked) [I-623, N-(1,1-dioxo-2,3-dihydro-1lambda6-thiophen-3-yl)-N-{[4-(2-hydroxypropan-2-yl)phenyl]methyl}-2-[4-(pentafluoro-lambda6-sulfanyl)phenyl]acetamide]
< 0.5	CC(F)(F)c1csc(CN(C(=O)Cc2ccc(S(F)(F)(F)(F)F)cc2)C2C=CS(=O)(=O)C2)n1 (centres unmarked) [I-625, N-{[4-(1,1-difluoroethyl)-1,3-thiazol-2-yl]methyl}-N-(1,1-dioxo-2,3-dihydro-1lambda6-thiophen-3-yl)-2-[4-(pentafluoro-lambda6-sulfanyl)phenyl]acetamide]
0.5 to 5	O=C(Cc1ccc(S(F)(F)(F)(F)F)cc1)N(CCc1nc(C2CC2)cs1)C1C=CS(=O)(=O)C1 (centres unmarked) [I-629, N-[2-(4-cyclopropyl-1,3-thiazol-2-yl)ethyl]-N-(1,1-dioxo-2,3-dihydro-1lambda6-thiophen-3-yl)-2-[4-(pentafluoro-lambda6-sulfanyl)phenyl]acetamide]
> 50	COc1cc(CC(=O)N(Cc2ccncc2)C2C=CS(=O)(=O)C2)cc(OC)c1Br (centres unmarked) [I-631, 2-(4-bromo-3,5-dimethoxyphenyl)-N-(1,1-dioxo-2,3-dihydro-1lambda6-thiophen-3-yl)-N-[(pyridin-4-yl)methyl]acetamide]
10 to 50	CC(C)(O)c1csc(CN(C(=O)Cc2ccc(S(F)(F)(F)(F)F)cc2)C2C=CS(=O)(=O)C2)n1 (centres unmarked) [I-637, N-(1,1-dioxo-2,3-dihydro-1lambda6-thiophen-3-yl)-N-{[4-(2-hydroxypropan-2-yl)-1,3-thiazol-2-yl]methyl}-2-[4-(pentafluoro-lambda6-sulfanyl)phenyl]acetamide]

same assay, conditions: ADP-Glo_hWRN_IC50, 0.15 nM WRN, 5 μM ATP, 0.1 nM DNA duplex, 15 min preincubation, 60 min at 25° C., pH 7.5, 1% DMSO

SMILES	IC50 [µM]
O=C(c1cc(-c2ccc(F)cc2)ns1)N(Cc1ccncc1)C1C=CS(=O)(=O)C1 (centres unmarked) [I-615, N-(1,1-dioxo-2,3-dihydro-1lambda6-thiophen-3-yl)-3-(4-fluorophenyl)-N-[(pyridin-4-yl)methyl]-1,2-thiazole-5-carboxamide]	> 50
